According to patent US20220347266A1, “METHOD AND MEDICINE FOR TREATING DEPRESSIVE DISORDERS” (QINGDAO PRIMEDICINE PHARMACEUTICAL CO., LTD., priority 2018, published 2022):
Where no end group is shown, it is not given here.

What was measured:
AMPAR = details: from EP1,687,427B1; cited from earlier work
C57 mice = assay: Forced swim test (FST) of mice, behavioral despair model of depressive disorder; format: in vivo, mouse; details: for immobility time of forced swimming mice: vs vehicle, FIG. 1
Source text: Among the behavioral despair models, forced swim test of mice/rats is the most common animal model of depressive disorder to evaluate the effect of antidepressants. In this model, animals are forced to swim in water in a limited space. After struggling for many times but failing to escape, the animals may stop swimming and begin floating without struggling to escape anymore. This immobility is considered as the manifestation of behavioral despair and depression. This model has good predictive validity for antidepressants.
By using ketamine metabolite HNK as a positive control medication, the effect of compound PMS-001 on depression-like behavior of C57 mice was investigated through forced swim test 1 hour and 24 hours after single medicinal intervention. […]; (SEQ ID NO: 3). Wherein the amino acid sequence YGRKKRRQRRR (SEQ ID NO: 2), also known as Tat peptide, is a carrier peptide, and can assist the polypeptide in penetration of the blood-brain barrier. […] However, it is unknown in the art whether a C-terminal polypeptide of GluR2 such as YKEGYNVYG (SEQ ID NO: 1) can be used in the treatment of depressive disorder, specifically major depressive disorder.
The experimental animals were 6-week-old male C57 mice obtained from Shanghai SLAC Laboratory Animal Co., Ltd, with body weight of […]. They were transported to the Animal Breeding Center of Shanghai Institute of Materia Medica, Chinese Academy of Sciences (Animal production license: SCXK9 [Shanghai] 2004-0002, use license: SYXK [Shanghai] 2003-0029), and allowed to acclimatize in animal facilities for more than 3 days, with 6 individuals per cage. Mice were housed at room temperature (23±0.2° C.), with a 12 h/12 h light/dark cycle. Before the behavioral test, animals were moved to the behavior testing room 2 hours in advance for acclimation to relieve tension. […]
24 hours before administration, each mouse was placed into a cylinder tank for acclimation in the water environment for 10 min. […] Mice were videotaped for 6 minutes since being placed into water, and the immobility time for the last 4 minutes was calculated due to the fact that most animals were very active in the first two minutes (the criteria for immobility: mice stop struggling, keep immobility and make small movements to balance their bodies or float in water). […]
All data analyses were performed with spss 22 data processing software. […] Data were expressed as Mean±SEM. *: p<0.05; **: p<0.01; ***: p<0.001.

Row | Sequence | inhibition of NMDA-mediated excessive endocytosis of AMPAR (AMPAR) | immobility time of forced swimming mice (C57 mice; 1 hour after administration, single 10 mg/kg intraperitoneal injection) | immobility time of forced swimming mice (C57 mice; 24 hours after administration, single 10 mg/kg intraperitoneal injection) | antidepressant effect compared to positive control HNK (C57 mice; same dose (10 mg/kg i.p.)) | onset of antidepressant effect after administration (C57 mice; single 10 mg/kg intraperitoneal injection)
1 | YKEGYNVYG (Artificially synthesized GluR2-3Y peptide) | proved to inhibit | – | – | – | –
2 | YGRKKRRQRRRYKEGYNVYG [PMS-001] | – | very significantly decrease | very significantly decrease | better rapid and lasting antidepressant effect | 1 h
